Where “and” joins values, the source holds several entries; their conditions need not be identical. Equal values may be shown once.
Experiments:
[1] = Cleavage of the 3′-O-nitro group with cysteamine-NaOH; assay type: physicochemical; details: aqueous cysteamine-NaOH (pH 9.0), 1.0 to 2.0 M cysteamine, after 5 minutes at 50° C.
Method: 10 to 100 nmol of 3′-O-nitro-thymidine 2 were dissolved in an aqueous solution of cysteamine-NaOH (pH 9.0) to obtain a final nucleoside concentration of 0.17 to 1.7 nmol/μL and a final cysteamine concentration of 1.0 to 2.0 M. Reaction control was performed via analytical reversed-phase chromatography using 0.1 M triethylammonium acetate (pH 7.0)/acetonitrile gradient as eluent.

[2] = biological target: T1, Therminator II DNA polymerase (Thermococcus sp., UniProt Q56366, A485L/D141A/E143A/Y409V); assay type: biochemical
T1 construct: purchased New England Biolabs
T1 sequence (Q56366 1-775 D141A/E143A/Y409V/A485L): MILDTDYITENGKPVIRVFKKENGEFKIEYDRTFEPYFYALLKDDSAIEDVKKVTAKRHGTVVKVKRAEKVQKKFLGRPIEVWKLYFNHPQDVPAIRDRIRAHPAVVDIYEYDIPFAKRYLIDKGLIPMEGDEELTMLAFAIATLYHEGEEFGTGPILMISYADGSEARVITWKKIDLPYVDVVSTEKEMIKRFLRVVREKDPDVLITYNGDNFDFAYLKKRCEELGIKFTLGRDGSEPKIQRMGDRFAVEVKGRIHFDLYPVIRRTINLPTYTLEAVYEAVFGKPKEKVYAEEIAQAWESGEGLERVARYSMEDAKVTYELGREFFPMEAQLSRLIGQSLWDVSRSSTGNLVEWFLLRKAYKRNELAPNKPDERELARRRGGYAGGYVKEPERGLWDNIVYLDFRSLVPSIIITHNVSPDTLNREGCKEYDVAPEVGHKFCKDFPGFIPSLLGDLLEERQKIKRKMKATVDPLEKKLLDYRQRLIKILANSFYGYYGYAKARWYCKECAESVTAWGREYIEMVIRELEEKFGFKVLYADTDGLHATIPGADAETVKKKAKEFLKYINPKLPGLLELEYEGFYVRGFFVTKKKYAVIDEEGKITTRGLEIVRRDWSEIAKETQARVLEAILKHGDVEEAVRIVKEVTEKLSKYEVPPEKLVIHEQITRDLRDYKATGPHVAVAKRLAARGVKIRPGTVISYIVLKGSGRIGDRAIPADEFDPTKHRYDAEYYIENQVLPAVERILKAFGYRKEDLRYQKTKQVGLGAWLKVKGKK

| cleavage of the nitrate group [1] | SMILES | acceptance as substrate by Therminator II DNA polymerase [2] | incorporation by Therminator II DNA polymerase [2] | primer + dNTP MWfound [2] |
| --- | --- | --- | --- | --- |
| Quantitative cleavage | Cc1cn([C@H]2C[C@H](O[N+](=O)[O-])[C@@H](CO)O2)c(=O)[nH]c1=O [Compound 2, 3′-O-Nitro-β-D-thymidine] |  |  |  |
|  | Cc1cn([C@H]2C[C@H](O[N+](=O)[O-])[C@@H](COP(=O)([O-])OP(=O)([O-])OP(=O)([O-])[O-])O2)c(=O)[nH]c1=O.[Na+].[Na+].[Na+].[Na+] [Compound 3, 3′-O-Nitro-β-D-thymidine 5′-triphosphate, tetrasodium salt] | accepted as substrates | incorporated efficiently | 5108.2 DA and 5108.1 DA and 5108.3 DA and 5108.4 DA |

Source: US9410197B2, “Compound for sequencing by synthesis” (Roche Diagnostics Operations, Inc., priority 2013, dated 2016)
